{"source": "patent US11197891B2", "about": "“Therapies with lanthionine C-like protein 2 ligands and cells prepared therewith” (Landos Biopharma, Inc., priority 2017, dated 2021)", "key": {"[1]": {"test_system": "C. difficile strain VPI 10463 (ATCC 43255)", "experiment": "C. difficile infection animal model", "assay_type": "in vivo, mice", "conditions": "8 mg/kg/d after infection"}, "[2]": {"test_system": "PBMCs from Crohn's disease donors", "experiment": "PBMCs isolated from Crohn's disease donors, 24 hour culture", "assay_type": "cell-based, human", "method": "(§1) Fresh de-identified whole blood was obtained from commercial vendor. Blood was diluted and purified for PBMC fraction by LeukoSep tube. Remaining red blood cells were lysed by hypotonic lysis. […] For siRNA experiments, cells were first incubated with an OriGene 3-mer LANCL2 siRNA or scrambled control suspended within ViromerGreen transfection reagent for 6 hours. […] Cells were stimulated with PMA and ionomycin six hours prior to assay.\n(§2) Whole blood was obtained from Crohn's disease patients, clinically categorized as mild to moderate disease."}, "[3]": {"test_system": "in vitro differentiated Tregs", "experiment": "STAT5a and FOXO1 phosphorylation by Western blot in in vitro differentiated Tregs", "assay_type": "cell-based, mice", "from_the_text": "Cells were also differentiated in the presence of inhibitors for PTEN (SF1670) or STATS (STAT5i)."}, "[4]": {"test_system": "CD4+ T cells co-cultured with in vitro differentiated Tregs", "experiment": "Co-assay of CD4+ T cells and BT-11 pre-treated Treg cells", "assay_type": "cell-based, mice", "method": "(§3) Spleens from WT and Lancl2−/− mice were excised and crushed to generate a single cell suspension. CD4+ T cell fraction was enriched by negative selection via magnetic sorting with the BD IMag system. Naïve CD4+ T cells were obtained by incubation with a biotinylated CD62L antibody followed by conjugation to streptavidin coated magnetic beads. Naïve cells were incubated for 48 hours within anti-CD3 coated tissue culture plates in complete IMDM media containing all-trans retinoic acid and purified TGF-β to stimulate differentiation into Tregs. […] Metabolic modulators, PS-48 (5 μM), DASA-58 (10 μM), and thapsigargin (10 nM), were added at 0 h. […] Six hours prior to assay, cells were stimulated with PMA and ionomycin. Cells were collected from plate for downstream analysis by flow cytometry, gene expression and metabolic assay.\nAfter two days cells were collected and plated with freshly collected CFSE-labeled CD4+ T cells."}, "Mdr1a−/− mice": {"test_system": "Mdr1a−/− mice", "experiment": "Mdr1a−/− model of colitis (IBD)", "assay_type": "in vivo", "text": "Mdr1a−/− model. Mdr1a−/− mice develop spontaneous colitis. […] Mice were weighed and scored weekly to monitor the development of colitis. At 10 weeks of age, Mdr1a−/− were sacrificed for the collection of tissue for downstream assay. DSS model. Lancl2^ΔT and Lancl2-expressing controls were given dextran sulfate sodium in drinking water for seven days. Following seven days, standard drinking water was returned. Mice were weighed and scored daily. Mice were euthanized for tissue collection at 7 and 10 days of experimental timeline. Adoptive transfer model. WT and Lancl2−/− donor spleens were crushed and enriched for CD4+ fraction by magnetic sorting. CD4+CD45RB^hiCD25− (Teff) and CD4+CD45RB^loCD25+ (Treg) cells were sorted by a FACSAria cell sorter. Based on indicated experimental group, Rag2−/− recipient mice received 4×10^5 Teff and 1×10^5 Treg cells from WT or Lancl2−/− origin by intraperitoneal injection. […] Mice were weighed and scored weekly until euthanasia at 8 weeks post-transfer.\nColons and mesenteric lymph nodes (MLN) were collected into RPMI/FBS buffer containing collagenase (300U/mL) and DNase (50U/mL) for digestion. Following filtration of the resulting single cell suspensions, immune cells were purified by Percoll gradient. Cells were labeled with mixtures of extracellular (CD45, CD3, CD4, CD8, CD19, NK1.1, CD25, F4/80, CD11b, CX3CR1, CD64) and intracellular (Tbet, RORγT, FOXP3, IFNγ, IL17, IL10) antibodies in a sequential live staining in 96-well plates. Data was acquired using a FACS Celesta flow cytometer with FACSDiva software.\nTotal RNA from colon and cells was generated using the Qiagen RNeasy mini kit. cDNA was generated using the BioRad iScript cDNA synthesis kit. Standard curves were generated by serial dilution of purified product from a standard PCR reaction with Taq DNA polymerase followed by purification using the Qiagen MinElute PCR purification kit. Expression levels were obtained from quantitative real-time PCR with SybrGreen supermix on a BioRad CFX96 Thermal cycler followed by normalization to expression of β-actin as described previously.\nH&E stained colonic sections were prepared from portions of colons collected into 10% buffered formalin and embedded in paraffin. Slides were examined by a board-certified veterinary pathologist via an Olympus microscope and images were collected with Image-Pro software. Samples were scored (0-4) for leukocytic infiltration, epithelial erosion and mucosal thickening."}, "CD4+ T cells": {"test_system": "CD4+ T cells", "experiment": "Differentiation of CD4+ T cells into Tregs with metabolic modulators", "assay_type": "cell-based, mice", "conditions": "BT-11 with PS-48 (5 μM), DASA-58 (10 μM) or thapsigargin (10 nM)", "method": "as §3"}, "[5]": {"test_system": "Lancl2ΔT and Lancl2-expressing control mice challenged with DSS", "experiment": "DSS model of colitis", "assay_type": "in vivo"}, "[6]": {"test_system": "in vitro differentiated Tregs", "experiment": "Gene expression of Treg stability genes in in vitro differentiated Tregs", "assay_type": "cell-based, mice", "conditions": "WT Tregs", "from_the_text": "Total RNA from colon and cells was generated using the Qiagen RNeasy mini kit. cDNA was generated using the BioRad iScript cDNA synthesis kit. Standard curves were generated by serial dilution of purified product from a standard PCR reaction with Taq DNA polymerase followed by purification using the Qiagen MinElute PCR purification kit. Expression levels were obtained from quantitative real-time PCR with SybrGreen supermix on a BioRad CFX96 Thermal cycler followed by normalization to expression of β-actin as described previously [33].\nSpleens from WT and Lancl2−/− mice were excised and crushed to generate a single cell suspension. CD4+ T cell fraction was enriched by negative selection via magnetic sorting with the BD IMag system. Naïve CD4+ T cells were obtained by incubation with a biotinylated CD62L antibody followed by conjugation to streptavidin coated magnetic beads. Naïve cells were incubated for 48 hours within anti-CD3 coated tissue culture plates in complete IMDM media containing all-trans retinoic acid and purified TGF-β to stimulate differentiation into Tregs [18]. […] Metabolic modulators, PS-48 (5 μM), DASA-58 (10 μM), and thapsigargin (10 nM), were added at 0 h. […] Six hours prior to assay, cells were stimulated with PMA and ionomycin. Cells were collected from plate for downstream analysis by flow cytometry, gene expression and metabolic assay. […]"}, "[7]": {"test_system": "naïve CD4+ T cells isolated from human PBMCs", "experiment": "Human naïve CD4+ T cells differentiated into Tregs", "assay_type": "cell-based", "conditions": "differentiated into Tregs in presence of BT-11, dose dependent", "method": "as §1, §2"}, "LANCL2": {"target": "T1, LANCL2 (Homo sapiens, UniProt Q9NS86)", "T1 sequence (Q9NS86 1-450)": "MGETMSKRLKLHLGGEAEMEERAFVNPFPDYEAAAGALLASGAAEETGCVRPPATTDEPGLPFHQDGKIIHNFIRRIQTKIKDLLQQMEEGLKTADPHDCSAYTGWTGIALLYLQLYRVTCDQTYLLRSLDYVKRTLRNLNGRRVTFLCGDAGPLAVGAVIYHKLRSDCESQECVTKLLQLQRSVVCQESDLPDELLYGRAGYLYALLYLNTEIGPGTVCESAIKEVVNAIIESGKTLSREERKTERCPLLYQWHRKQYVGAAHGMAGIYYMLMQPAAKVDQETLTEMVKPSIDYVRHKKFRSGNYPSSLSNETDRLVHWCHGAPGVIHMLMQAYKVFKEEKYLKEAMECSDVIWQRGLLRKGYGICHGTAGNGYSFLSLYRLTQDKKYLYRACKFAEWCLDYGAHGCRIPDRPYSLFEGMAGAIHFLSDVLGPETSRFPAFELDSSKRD", "experiment": "Surface plasmon resonance (SPR) binding to LANCL2", "conditions": "Tables 1A and 1B; read-out: SPR Affinity to LANCL2 (Kd)"}, "Naïve CD4+ T cells": {"test_system": "Naïve CD4+ T cells", "experiment": "Differentiation of naïve CD4+ T cells into Tregs with IL-2 or IL-12 (flow cytometry)", "assay_type": "cell-based, mice", "conditions": "media containing IL-2 or IL-12, inhibitor SF1670 or STAT5i", "method": "Naïve CD4+ T cells were isolated from the spleens of mice by magnetic sorting. The isolated cells were incubated in anti-CD3/anti-CD28 coated 96 well plates in Treg differentiation media. The Treg differentiation media was Iscove's Modified Dulbecco's Medium (IMDM) media (ThermoFisher Scientific) supplemented with fetal bovine serum, HEPES, penicillin/streptomycin, L-glutamine, and differentiation agents. The Treg differentiation agents were 10 nM all-trans-retinoic acid and 5 ng/mL TGF-β. Additional experiments were conducted comparing differentiation in the Treg differentiation media with and without the addition of 10 ng/mL IL-2 or IL-12. […] Prior to assay, cells were stimulated with PMA and ionomycin for 6 hours.\nColonic lamina propria lymphocytes and cultured cells were plated in 96 well plates (6×10^5 cells/well) and processed for immunophenotyping by flow cytometry as previously described. Briefly, cells were incubated with fluorochrome conjugated antibodies to extracellular markers: CD45, CD4, CD3, CD25, CD8. Samples needing a secondary staining were incubated with secondary antibodies, or streptavidin-conjugated fluorochrome. The samples were then fixed and permeabilized. Cells were incubated with antibodies to intracellular markers: Tbet, IFNγ, IL10, FOXP3, IL17, RORγT. Data was acquired with a BD FACS Celesta flow cytometer and analyzed using FACS Diva software (BD Pharmingen). […]"}, "[8]": {"conditions": "WT Treg pre-treated with BT-11, 24 h co-assay"}}, "note": "pKd: −log10 of the molar value. “Also recorded” adds a separate entry of the source."}
{"molecule": "O=C(c1cccc(-c2nc3ccccc3[nH]2)n1)N1CCN(C(=O)c2cccc(-c3nc4ccccc4[nH]3)n2)CC1", "note": "[BT-11, N,N-Bis(benzimidazolylpicolinoyl)piperazine]", "values": [{"measurement": "burden of C. difficile within the colon", "setting": "[1]", "value": "did not induce a decrease in the burden of C. difficile"}, {"measurement": "colonic pathology including infiltration of leukocytes", "setting": "[1]", "value": "reduced colonic pathology"}, {"measurement": "mortality", "setting": "[1]", "value": "complete protection against mortality"}, {"measurement": "neutrophils, Th1 and Th17 cells within the lamina propria", "setting": "[1]", "value": "reduced neutrophils, Th1 and Th17 cells"}, {"measurement": "regulatory T cells within the lamina propria", "setting": "[1]", "value": "increase in regulatory T cells"}, {"measurement": "disease activity scores", "setting": "[1]; from day 2 onward", "value": "lower disease activity scores"}, {"measurement": "percentage of IL-10+ and FOXP3+ cells", "setting": "[2]; 24 hour culture with BT-11", "value": "higher percentage of IL-10+ and FOXP3+ cells"}, {"measurement": "percentages of TNFα+ and IFNγ+ cells", "setting": "[2]; 24 hour culture with BT-11", "value": "lower percentages of TNFα+and IFNγ+ cells"}, {"measurement": "commitment to effector phenotypes (IFNγ+ cells)", "setting": "[2]; augmented (external) PEP concentration", "value": "prevented cells from an increased commitment to effector phenotypes"}, {"measurement": "STAT5a phosphorylation", "setting": "[3]; base Treg differentiation media and with IL-2 or IL-12", "value": "phosphorylated in a greater ratio"}, {"measurement": "FOXO1 phosphorylation", "setting": "[3]; base media and media containing IL-2, but not IL-12", "value": "similarly affected"}, {"measurement": "proliferative index and TNFα/IFNγ expression", "setting": "[4]; KO (Lancl2−/−) Treg pre-treated with BT-11", "value": "did not induce changes in either measure"}, {"measurement": "expression of TNFα and IFNγ by cytometric bead array", "setting": "[4]; [8]", "value": "lowered"}, {"measurement": "proliferative index of CD4+ T cells (CFSE)", "setting": "[4]; [8]", "value": "lowered the proliferative index"}, {"measurement": "retention of Treg (FOXP3+IL10+) phenotype", "setting": "[4]; WT Treg pre-treated with BT-11, after 24 h co-assay", "value": "greater retention of Treg (FOXP3+IL10+) phenotype"}, {"measurement": "colonic leukocytic infiltration, epithelial erosion and mucosal thickening", "setting": "Mdr1a−/− mice; 8 mg/kg oral daily, at 10 weeks of age", "value": "reduced colonic leukocytic infiltration, epithelial erosion and mucosal thickening"}, {"measurement": "disease activity (development of disease)", "setting": "Mdr1a−/− mice; 8 mg/kg oral daily, six weeks from four weeks of age", "value": "prevented the development of disease throughout the six-week period; also recorded: decreases disease activity index"}, {"measurement": "efficacy when given therapeutically", "setting": "Mdr1a−/− mice; beginning after presentation of symptoms at 7 weeks of age", "value": "displays efficacy when given therapeutically"}, {"measurement": "percentages of IL-10-producing cellular subsets (CX3CR1+ macrophages, Treg cells)", "setting": "Mdr1a−/− mice; colonic LP and MLN, 8 mg/kg oral daily", "value": "increased percentages of IL-10-producing cellular subsets"}, {"measurement": "inflammatory cytokines IFNγ, IL17A, IL6, TNFα, MCP1", "setting": "Mdr1a−/− mice; colonic gene expression and cytometric bead array", "value": "Down-regulation of inflammatory cytokines"}, {"measurement": "Th1 and Th17 cells in colonic lamina propria and mesenteric lymph nodes", "setting": "Mdr1a−/− mice; flow cytometry, 8 mg/kg oral daily", "value": "significant (P<0.05) reductions"}, {"measurement": "whole colon Lancl2 expression", "setting": "Mdr1a−/− mice; oral treatment", "value": "upregulated whole colon Lancl2"}, {"measurement": "Treg cell differentiation", "setting": "CD4+ T cells", "value": "increased differentiation of Tregs"}, {"measurement": "Th1 and Th17 cells in colonic LP", "setting": "[5]; Lancl2ΔT mice treated with BT-11", "value": "failed to induce characteristic reductions in Th1 and Th17 cells"}, {"measurement": "efficacy in DSS model with loss of LANCL2 in CD4+ T cells", "setting": "[5]; Lancl2ΔT mice, seven-day DSS, oral BT-11", "value": "abrogated the efficacy of BT-11"}, {"measurement": "expression of P2rx7", "setting": "[6]; 0.625 μM BT-11", "value": "significantly upregulated (P<0.05)"}, {"measurement": "expression of Socs2, Capn3, Irf7 and Lag3", "setting": "[6]; 48 hours of BT-11 treatment, significant at 0.625 μM", "value": "dose-dependent increase"}, {"measurement": "stability-associated Treg markers (Lag3, Socs2, Irf7, P2rx7, Capn3, Ikzf2)", "setting": "[7]", "value": "upregulation of stability-associated Treg markers"}, {"measurement": "pKd", "setting": "LANCL2", "value": 5.11}]}
{"molecule": "CC(C)(C)C(=O)Nc1ccc2c(c1)C(=O)C(=O)c1ccccc1-2", "note": "[SF1670, reference compound]", "values": [{"measurement": "effects of BT-11 on CD25+ FOXP3+ and CD25+ Tbet+ cells with inhibitors", "setting": "Naïve CD4+ T cells", "value": "only prevented effects of BT-11 on CD25+ Tbet+ cells in IL-2 containing media"}]}
